pIC50, pKi: −log10 of the molar value.

Results on 2 compounds are retold here after paper PMC3991565 (Science (New York, N.Y.), 2014).

In one assay the target is human mGlu1 receptor (Homo sapiens, UniProt Q13255). As to the kind of experiment: FITM binding affinity at mGlu1.
In another assay the target is mGlu5 (Homo sapiens, UniProt P41594). As to the kind of experiment: FITM selectivity for mGlu1 over mGlu5. It counts as cell-based. As to conditions: mGlu1 versus mGlu5, Fig. S12.
The target in assay [1] is wild-type (WT) full-length human mGlu1 receptor (Homo sapiens, UniProt Q13255). As to the kind of experiment: FITM-mediated antagonism of glutamate at wild-type full-length receptor. Type of assay: cell-based. To be noted: WT full-length human mGlu1, versus glutamate.
wild-type (WT) full-length human mGlu1 receptor, sequence (Q13255 19-1194): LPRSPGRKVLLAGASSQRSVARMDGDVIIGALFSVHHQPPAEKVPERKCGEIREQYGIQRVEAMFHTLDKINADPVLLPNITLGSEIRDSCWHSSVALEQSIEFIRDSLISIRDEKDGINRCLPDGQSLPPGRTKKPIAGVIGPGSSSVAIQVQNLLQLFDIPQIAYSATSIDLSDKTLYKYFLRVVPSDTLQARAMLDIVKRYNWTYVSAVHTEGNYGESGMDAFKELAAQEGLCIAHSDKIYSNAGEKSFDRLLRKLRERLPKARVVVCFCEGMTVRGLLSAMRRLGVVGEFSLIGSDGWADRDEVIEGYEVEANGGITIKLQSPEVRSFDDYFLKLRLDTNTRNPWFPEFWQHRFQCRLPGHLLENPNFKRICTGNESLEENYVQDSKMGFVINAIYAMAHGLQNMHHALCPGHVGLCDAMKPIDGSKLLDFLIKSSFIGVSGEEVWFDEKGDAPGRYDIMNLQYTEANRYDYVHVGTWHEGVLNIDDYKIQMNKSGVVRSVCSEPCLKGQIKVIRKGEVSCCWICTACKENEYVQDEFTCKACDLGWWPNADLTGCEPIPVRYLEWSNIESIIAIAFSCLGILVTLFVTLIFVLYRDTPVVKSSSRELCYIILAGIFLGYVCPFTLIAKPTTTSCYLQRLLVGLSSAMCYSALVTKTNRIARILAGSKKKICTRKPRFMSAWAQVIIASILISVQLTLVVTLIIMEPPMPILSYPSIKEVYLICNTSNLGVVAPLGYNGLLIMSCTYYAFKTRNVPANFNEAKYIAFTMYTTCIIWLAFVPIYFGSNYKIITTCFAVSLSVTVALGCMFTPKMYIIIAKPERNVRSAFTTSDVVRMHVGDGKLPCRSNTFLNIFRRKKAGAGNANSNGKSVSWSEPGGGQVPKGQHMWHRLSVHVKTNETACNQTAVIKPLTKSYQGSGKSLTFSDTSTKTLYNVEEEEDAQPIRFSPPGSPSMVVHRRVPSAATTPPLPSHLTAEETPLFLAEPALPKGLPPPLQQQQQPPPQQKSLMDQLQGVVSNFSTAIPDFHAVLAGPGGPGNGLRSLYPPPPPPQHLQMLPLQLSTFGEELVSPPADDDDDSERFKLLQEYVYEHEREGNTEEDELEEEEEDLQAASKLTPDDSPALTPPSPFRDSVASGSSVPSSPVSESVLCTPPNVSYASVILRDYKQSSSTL
The subject of assay [2] is mGlu1. To be noted: mGlu1 NAM potency of FITM and analogs used for docking; cited from earlier work.
For assay [3], the system named is mGlu1. As to the kind of experiment: potency. Type of assay: cell-based. To be noted: relative to FITM; ref 9 values.

human mGlu1 receptor, sequence (Q13255 581-860): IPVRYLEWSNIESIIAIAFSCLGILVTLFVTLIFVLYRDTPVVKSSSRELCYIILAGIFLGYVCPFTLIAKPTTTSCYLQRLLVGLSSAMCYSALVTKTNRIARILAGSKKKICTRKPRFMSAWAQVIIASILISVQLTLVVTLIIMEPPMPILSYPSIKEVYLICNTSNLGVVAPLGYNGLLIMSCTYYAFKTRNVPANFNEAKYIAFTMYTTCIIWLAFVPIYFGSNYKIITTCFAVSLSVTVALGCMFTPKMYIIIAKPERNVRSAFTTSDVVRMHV
mGlu5, sequence (P41594 21-1212): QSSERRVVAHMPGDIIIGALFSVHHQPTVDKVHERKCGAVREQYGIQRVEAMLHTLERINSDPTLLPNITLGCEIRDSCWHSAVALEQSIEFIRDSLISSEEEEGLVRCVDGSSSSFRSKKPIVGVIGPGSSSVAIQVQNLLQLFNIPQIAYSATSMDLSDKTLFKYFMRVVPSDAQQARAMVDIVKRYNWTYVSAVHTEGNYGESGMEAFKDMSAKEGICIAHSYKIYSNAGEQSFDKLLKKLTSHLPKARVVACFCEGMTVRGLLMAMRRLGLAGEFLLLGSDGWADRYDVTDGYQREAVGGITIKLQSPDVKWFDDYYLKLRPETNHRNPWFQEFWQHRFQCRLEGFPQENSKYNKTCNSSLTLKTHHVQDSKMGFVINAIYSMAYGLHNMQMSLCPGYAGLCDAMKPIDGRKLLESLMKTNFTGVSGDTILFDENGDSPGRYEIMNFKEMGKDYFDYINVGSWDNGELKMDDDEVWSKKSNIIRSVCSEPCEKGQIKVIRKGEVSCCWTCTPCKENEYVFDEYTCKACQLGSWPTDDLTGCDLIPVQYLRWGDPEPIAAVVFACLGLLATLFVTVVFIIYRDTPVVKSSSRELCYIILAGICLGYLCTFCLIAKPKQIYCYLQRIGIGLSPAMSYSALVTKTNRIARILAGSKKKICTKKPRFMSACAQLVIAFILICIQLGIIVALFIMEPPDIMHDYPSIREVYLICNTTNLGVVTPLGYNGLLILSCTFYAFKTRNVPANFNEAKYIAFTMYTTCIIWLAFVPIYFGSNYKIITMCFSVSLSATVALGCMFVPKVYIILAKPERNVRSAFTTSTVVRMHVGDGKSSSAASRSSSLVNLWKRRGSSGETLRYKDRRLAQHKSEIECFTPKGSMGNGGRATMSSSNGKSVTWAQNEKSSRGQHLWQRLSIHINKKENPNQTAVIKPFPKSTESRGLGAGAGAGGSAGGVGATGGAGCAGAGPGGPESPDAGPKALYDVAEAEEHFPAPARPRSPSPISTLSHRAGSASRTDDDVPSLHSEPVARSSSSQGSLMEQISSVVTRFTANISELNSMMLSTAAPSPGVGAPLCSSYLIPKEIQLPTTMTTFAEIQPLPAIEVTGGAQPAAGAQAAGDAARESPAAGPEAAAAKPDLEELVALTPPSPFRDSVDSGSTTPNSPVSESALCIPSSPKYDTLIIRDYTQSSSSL

What is called pKi is the negative decadic logarithm of the Ki, by convention in mol/L. What is called pIC50 is −log10 of the IC50, conventionally taken in molar units. In the case of `CC(C)Nc1cc(-c2csc(N(C)C(=O)c3ccc(F)cc3)n2)ncn1` [FITM, 4-fluoro-N-(4-(6-(isopropylamino)pyrimidin-4-yl)thiazol-2-yl)-N-methylbenzamide], the pKi on human mGlu1 receptor was 8.60. Besides, on mGlu5, the subtype selectivity entry is reported as “selectivity for mGlu1 over mGlu5”. For the same compound, the “mode of allosteric modulation” value in assay [1] is given as “full NAM”. Also, the pIC50 in the assay with mGlu1 [2] is 8.30.

Take `CC(C)N(C)c1cc(-c2csc(N(C)C(=O)c3ccc(F)cc3)n2)ncn1` [compound 28]: the “fold lower potency than FITM” value in the assay on mGlu1 [3] is listed as “approximately 10 fold”. For the same compound, the negative logarithm of the IC50 (pIC50) in the assay on mGlu1 [2] was 7.11.
